Laboratory results taken from patent publication US8921312B2, “Combination of insulin and ascorbate to enhance wound healing” (University of South Florida, priority 2006, dated 2014).

Assays:
keratocan = assay: Western blot of keratan sulfate proteoglycan accumulation in the medium: keratocan; format: cell-based, bovine
Method: (§1) Cell Culture-Keratocytes were isolated from adult bovine corneas using two sequential collagenase digestions as previously described (see […], and […]. Production of prostaglandin D synthase as a keratan sulfate proteoglycan by cultured bovine keratocytes Invest Ophthalmol Vis Sci. 2001; 42:1201-1207; which is incorporated herein by reference). […] Western blot analysis-Core protein and protein levels in the media were measured by Western blot as previously described. In brief, the culture media was collected from each culture condition, concentrated by spin filtration to one tenth or one fiftieth of the original volume. The size of the aliquot needed from each sample to provide a similar signal on film by Western blot was empirically determined. The measured pixel density was then divided by the DNA content of the culture equivalent to the amount loaded and expressed as pixel density per μg DNA. Blots were probed with polyclonal antibodies to bovine keratocan or lumican (diluted 1:1000) or prostaglandin D synthase (PGDS) (1:20,000). The lumican and keratocan antibodies are peptide antibodies raised against the core protein^48. The rabbit antiserum to bovine PGDS was a generous gift of Gary […] University). Membranes were rinsed and incubated for 1 hour in 1:10,000 horseradish peroxidase (HRP)-conjugated secondary IgG (GE Healthcare, Piscataway, N.J.). Protein bands were visualized using ECL (GE Healthcare, Piscataway, N.J.) on Kodak Bio-Max XAR X-ray film. Band density was measured using a Bio-Rad GS-710 Calibrated Imaging Densitometer (Bio-Rad, Hercules, Calif.).

cells = details: cited from earlier work
[1] = system: prostaglandin D synthase (PGDS); assay: Western blot of keratan sulfate proteoglycan accumulation in the medium: PGDS; format: cell-based, bovine
Method: as §1, with “Membranes were rinsed and incubated for 1 hour in 1:10,000 horseradish peroxidase (HRP)-conjugated secondary IgG (GE Healthcare, Piscataway, N.J.). Protein bands were visualized using ECL (GE Healthcare, Piscataway, N.J.) on Kodak Bio-Max XAR X-ray film.” left out

collagen types I and V = assay: Collagen helix stability: pepsin digestion of culture medium, SDS-PAGE; format: cell-based, bovine; details: pepsin in 0.5M acetic acid
Method: Cell Culture-Keratocytes were isolated from adult bovine corneas using two sequential collagenase digestions as previously described (see […], and […]. Production of prostaglandin D synthase as a keratan sulfate proteoglycan by cultured bovine keratocytes Invest Ophthalmol Vis Sci. 2001; 42:1201-1207; which is incorporated herein by reference). […] Each sample received a second 50 μl aliquot from the pepsin stock, and digestion was allowed to continue for an additional six hours at 4° C. The samples were titrated with 1 N NaOH to pH 8.0 to inactivate the enzyme, dialyzed against water overnight, lyophilized, reconstituted in 1 X SDS running buffer and separated on 10% bis-tris gels under reducing conditions. The gels were stained with Safestain following the manufacturer's protocol.

lumican = assay: Western blot of keratan sulfate proteoglycan accumulation in the medium: lumican; format: cell-based, bovine
Method: as §1

keratocytes [2] = assay: Keratocyte population growth in defined media (DNA content, Cyquant); format: cell-based, bovine; details: DMEM/F12; insulin 10 μg/ml, ascorbate 1 mM; days 1-10
From the text: Cell Culture-Keratocytes were isolated from adult bovine corneas using two sequential collagenase digestions as previously described (see […], and […]. Production of prostaglandin D synthase as a keratan sulfate proteoglycan by cultured bovine keratocytes Invest Ophthalmol Vis Sci. 2001; 42:1201-1207; which is incorporated herein by reference). […] DNA quantitation-Cell layers were harvested on days 1, 4, 7 and 10 to measure DNA content using Cyquant (Invitrogen, Carlsbad, Calif.). Briefly, the cell layers were rinsed with PBS, frozen, thawed and solubilized in a lysis buffer supplemented with a DNA binding dye. The DNA content was determined at 480/535 nm by measuring 4 wells in triplicate and comparing the values to a calf thymus DNA standard. The DNA content of parallel cultures was measured for experiments that utilized the cell layer. Cell proliferation-Cultures were radiolabeled with 20 μCi ^3H-thymidine/ml of medium for 72 hours beginning on days 1 and 4. The labeled medium was removed upon harvesting, and the cell layers washed with cold PBS. The cell layers were processed as described under DNA quantitation. Incorporation into DNA was determined as previously described.

chondroitin sulfate = assay: Incorporation of 35SO4 into chondroitin sulfate (chondroitinase ABC sensitive); format: cell-based, bovine; details: 72 h labeling; medium; CPM per μg DNA; vs control
From the text: (§2) Cell Culture-Keratocytes were isolated from adult bovine corneas using two sequential collagenase digestions as previously described (see […], and […]. Production of prostaglandin D synthase as a keratan sulfate proteoglycan by cultured bovine keratocytes Invest Ophthalmol Vis Sci. 2001; 42:1201-1207; which is incorporated herein by reference). […] The medium was collected, frozen, lyophilized and reconstituted in 4 M guanidine HCl. Unincorporated isotope was removed using PD 10 columns Fractions containing incorporated ^35SO4 were combined and concentrated using Amicon Ultra spin-concentrators. Incorporation into CS and KS was determined by digestion with chondroitinase ABC or endo-β-galactosidase (Seikagaku, Associates of Cape Cod, E. Falmouth, Mass.) as previously described. Aliquots containing equivalent incorporated radioactivity were fractionated using a Superose 6 12/30 HR column (GE Healthcare, Piscataway, N.J.) equilibrated and eluted with 4M guanidine HCl (0.05 NaAc, pH6.5) at 0.3 ml/min Fractions (0.6 ml) were collected and incorporation measured by liquid scintillation counting. The levels of CS and KS in each fraction were determined as described above.

keratocytes [3] = assay: Collagen synthesis: 3H-glycine incorporation into collagenase-sensitive protein; format: cell-based, bovine; details: 3H-glycine 72 h
Method: Cell Culture—Keratocytes were isolated from adult bovine corneas using two sequential collagenase digestions as previously described (see Berryhill B L, Beales M P, and Hassell J R. Production of prostaglandin D synthase as a keratan sulfate proteoglycan by cultured bovine keratocytes Invest Ophthalmol Vis Sci. 2001; 42:1201-1207; which is incorporated herein by reference). Cells were plated in DMEM/F12 at high density (20,000 cells/cm^2) in 6-well plates (Costar, Cambridge, Mass.) and allowed to attach overnight at 37° C. in 5% CO2. The medium was changed the next day (day 1) and on days 4, 7 and 10 to fresh DMEM or DMEM supplemented with insulin (10 μg/ml), with or without 1 mM 2-phospho-L-ascorbic acid (ascorbate). Ethyl-3,4-dihydroxybenzoate (EDB) was added at 0.08 mM and 0.4 mM final concentration on day 1.
Collagen synthesis—The incorporation of ^3H-glycine into collagen was determined as previously described. In summary, cultures were incubated for 72 hours in medium containing 25 μCi ^3H-glycine/ml beginning on day 1. Media was adjusted to 4M guanidine HCl and the cell layers extracted in 4M guanidine HCl. Unincorporated isotope in media and cell layers was removed by chromatography on PD10 columns equilibrated and eluted with 4M guanidine HCl (GE Healthcare, Piscataway, N.J.). Fractions containing incorporated radioactivity were pooled, dialyzed against water and 400 μl aliquots incubated with or without 2.5 Units collagenase form III (Advanced Biofactures, Lynbrook, N.Y.) in collagenase digestion medium (3 mM N-ethyl maleimide, 50 mM Tris pH 7.5, 150 mM NaCl and 5 mM CaCl2) for 3 hours at 37° C. Undigested proteins were precipitated with carrier BSA using cold 10% TCA containing 0.5% tannic acid and released incorporated counts measured by liquid scintillation. The DNA content was determined as described above.

keratan sulfate = assay: Incorporation of 35SO4 into keratan sulfate (endo-β-galactosidase sensitive); format: cell-based, bovine; details: 72 h labeling; medium; CPM per μg DNA; vs control
From the text: as §2

[4] = 0.08 mM EDB in medium containing insulin and ascorbate, 72 hours, vs insulin+ascorbate
[5] = 0.4 mM EDB in medium containing insulin and ascorbate
[6] = medium day 4, pixel density per μg DNA, vs control

Row | Compound | Reduction of keratocan accumulation (keratocan; [4]) [%] | Keratocan accumulation in the medium (keratocan; [5]) | Toxicity to the cells (cells) | PGDS level in the medium with EDB ([1]; EDB in medium containing insulin and ascorbate) | Pepsin-resistant collagen bands in the medium with EDB (collagen types I and V; 0.4 mM EDB in insulin plus ascorbate medium) | Reduction of lumican accumulation (lumican; [4]) [%] | Lumican accumulation in the medium (lumican; [5]) | Cell number (DNA content) over 10-day culture period (keratocytes [2]) | Keratocan level in the medium, fold increase compared to control (keratocan; [6]) | 35SO4 incorporation into CS, fold compared to control (chondroitin sulfate) | Total collagen synthesized, fold more compared to control (keratocytes [3]; day 1-4, insulin 10 μg/ml, ascorbate 1 mM, vs control medium) [fold] | Collagen in the cell layer, fold increase compared to control (keratocytes [3]; cell layer, vs control) [fold] | Collagen in the medium, fold increase compared to control (keratocytes [3]; medium, vs control) [fold] | PGDS level in the medium [1, 6] | Pepsin-resistant collagen (α1(I), α2(I), α1(V) bands) in the medium (collagen types I and V; SDS-PAGE) | Lumican level in the medium, fold increase compared to control (lumican; [6]) | 35SO4 incorporation into KS, fold compared to control (keratan sulfate)
1 | CCOC(=O)c1ccc(O)c(O)c1 [EDB, Ethyl-3,4-dihydroxybenzoate] | 28 | levels below of those measured in insulin alone | not toxic to the cells | declined but the decrease was not significant | absent | 19 | levels below of those measured in insulin alone |  |  |  |  |  |  |  |  |  | 
2 | insulin: insulin added at 10 μg/ml to defined DMEM medium for keratocyte culture |  |  |  |  |  |  |  | increased in number | no effect | only minor changes | 4 | 5 | 3 | neither ascorbate nor insulin affected PGDS levels | absent | no effect | only minor changes
